≈ marks a conversion by molar mass, not a printed value. Structures can show the parent of a compound that is named as a salt.
Columns and labels:
[1] = system: ADP-induced platelet aggregation; test: inhibition of ADP-induced platelet aggregation in platelet rich plasma; assay type: cell-based; settings: 5 min; human platelet rich plasma, 37° C, five minutes incubation prior to ADP; read-out: ED50 (amount which reduces platelet aggregation by 50%)
Experimental: Another selection of representative compounds within the scope of the present invention, including some listed in the previous table, have been tested for their ability to inhibit platelet aggregation. Citrated whole blood from human volunteers, who had not taken any medicine for the previous week, was centrifuged to obtain platelet rich plasma. On addition of ADP (adenosine diphosphate) to this platelet rich plasma, incubated at 37° C with constant stirring, in an aggregometer, optical density changes can be observed which are caused by platelet aggregation. Thus, the extent of ADP-induced platelet aggregation is determined for each sample of blood used. Compounds to be tested were incubated for five minutes prior to the addition of ADP. The ED50 of a compound is that amount, in γ/ml, which reduces platelet aggregation by 50% under the above conditions.

fibrinolytic activity = settings: prior art; cited from earlier work
whole blood clot = whole blood clot lysis method (fibrinolytic activity), blood from rats given compound intraperitoneally; assay type: in vivo; settings: Rattus norvegicus, ip, 4 h, intraperitoneal, blood diluted 1:10, clotted with thrombin, 37° C, four hours, read-out: ED50 (dose which causes lysis of 50% of the clot)
Experimental: Certain representative compounds within the scope of the present invention have been tested for fibrinolytic activity by the whole blood clot lysis method, as modified from the procedure of Billimoria et al.^1 In this method, blood from rats given a fibrinolytic compound intraperitoneally is taken and diluted 1:10. A standard amount is clotted with thrombin, incubated at 37° C for four hours, and the amount of clot that has lysed is determined. […] These ED50 values for the various compounds tested are set forth in the following table, each of the compounds being identified by name and by the number of the ensuing example in which its synthesis is described. […] ^1 Billimoria, […]., James, […]., Lancet II, 471 (1959)

[2] = system: ADP-induced platelet aggregation and experimental thrombosis; settings: literature; cited from earlier work
[3] = prior art; cited from earlier work

## COc1cc2c(cc1OC)C(CCCC(CCCC1=NCCc3cc(OC)c(OC)cc31)C1=NCCc3cc(OC)c(OC)cc31)=NCC2 [Example 19.1a, 1,1',1"-(1,4,7-heptanetriyl)tris[3,4-dihydro-6,7-dimethoxyisoquinoline]]
[1]
  IC50: < 40 µg/mL

## CNC[C@H](O)c1ccc(O)c(O)c1 [epinephrine]
Fibrinolytic activity
  fibrinolytic activity in vivo: Fibrinolytic activity in vivo can be induced

## COc1cc2c(cc1OC)C(CCCC(CCCCC(CCCC1NCCc3cc(OC)c(OC)cc31)C1NCCc3cc(OC)c(OC)cc31)C1NCCc3cc(OC)c(OC)cc31)NCC2 (centres unmarked) [Example 16.1, 1,1',1",1'"-(1,4,9,12-dodecanetetrayl)tetrakis[1,2,3,4-tetrahydro-6,7-dimethoxyisoquinoline]]
Whole blood clot
  ED50: 0.03 mg/kg

## COc1cc2c(cc1OC)C(CCC(CCC1NCCc3cc(OC)c(OC)cc31)(CCC1NCCc3cc(OC)c(OC)cc31)[N+](=O)[O-])NCC2 (centres unmarked) [Example 18.1, 1,1'-{3-nitro-3-[2-(1,2,3,4-tetrahydro-6,7-dimethoxy-1-isoquinolinyl)ethyl]pentamethylene}bis[1,2,3,4-tetrahydro-6,7-dimethoxyisoquinoline]]
Whole blood clot
  ED50: < 0.6 mg/kg
[1]
  IC50: 9 µg/mL (≈ 12.5 µM)

## CCN(CC)CCOC(=O)c1ccc(N)cc1 [procaine]
Fibrinolytic activity
  fibrinolytic activity in vivo: Fibrinolytic activity in vivo can be induced

## COc1cc2c(cc1OC)[C@H](CCCC[C@H]1NCCc3cc(OC)c(OC)cc31)NCC2 [bisobrin dihydrochloride, 1,1'-tetramethylenebis[1,2,3,4-tetrahydro-6,7-dimethoxyisoquinoline], reference compound]
Whole blood clot
  ED50: 0.5 mg/kg

## COc1cc2c(cc1OC)C(CCC(CCC1NCCc3cc(OC)c(OC)cc31)CCC(C)(C)CC1NCCc3cc(OC)c(OC)cc31)NCC2 (centres unmarked) [Example 8.1, 1,1'-{2,2-dimethyl-5-[2-(1,2,3,4-tetrahydro-6,7-dimethoxy-1-isoquinolinyl)ethyl]heptamethylene}bis[1,2,3,4-tetrahydro-6,7-dimethoxyisoquinoline]]
Whole blood clot
  ED50: < 0.4 mg/kg

## OCCN(CCO)c1nc(N2CCCCC2)c2nc(N(CCO)CCO)nc(N3CCCCC3)c2n1 [dipyridamole, 2,2',2",2'"-[(4,8-dipiperidinopyrimido[5,4-d]pyrimidine-2,6-diyl)dinitrilo]tetraethanol, reference compound]
[1]
  IC50: 270 µg/mL (≈ 535 µM)
[2]
  effect against ADP-induced platelet aggregation and experimental thrombosis: generally recognized as being effective against ADP-induced platelet aggregation and experimental thrombosis

## COc1cc2c(cc1OC)C(CCC(CCC(CC1NCCc3cc(OC)c(OC)cc31)c1ccccc1)CCC1NCCc3cc(OC)c(OC)cc31)NCC2 (centres unmarked) [Example 7.1, 1,1'-{2-phenyl-5-[2-(1,2,3,4-tetrahydro-6,7-dimethoxy-1-isoquinolinyl)ethyl]heptamethylene}bis[1,2,3,4-tetrahydro-6,7-dimethoxyisoquinoline]]
Whole blood clot
  ED50: < 0.1 mg/kg

## COc1cc2c(cc1OC)C(CCCCC(SCC1NCCc3cc(OC)c(OC)cc31)C1NCCc3cc(OC)c(OC)cc31)NCC2 (centres unmarked) [Example 6.1, 1,1'-[1-[(1,2,3,4-tetrahydro-6,7-dimethoxy-1-isoquinolinylmethyl)thio]pentamethylene]bis[1,2,3,4-tetrahydro-6,7-dimethoxyisoquinoline]]
Whole blood clot
  ED50: < 0.6 mg/kg

## COc1cc2c(cc1OC)C(CCCCC(CCC1=NCCc3cc(OC)c(OC)cc31)CCC1=NCCc3cc(OC)c(OC)cc31)=NCC2.Cl.Cl.Cl.O.O.O [Example 1.1a, 1,1'-{3-[2-(3,4-dihydro-6,7-dimethoxy-1-isoquinolinyl)ethyl]heptamethylene}bis[3,4-dihydro-6,7-dimethoxyisoquinoline] trihydrochloride trihydrate]
[1]
  IC50: < 40 µg/mL

## COc1cc2c(cc1OC)C(CCCC(CCCC(CCCC1NCCc3cc(OC)c(OC)cc31)C1NCCc3cc(OC)c(OC)cc31)C1NCCc3cc(OC)c(OC)cc31)NCC2.Cl.Cl.Cl.Cl.O.O.O.O (centres unmarked) [Example 2.1, 1,1',1",1'"-(1,4,8,11-Undecanetetrayl)tetrakis[1,2,3,4-tetrahydro-6,7-dimethoxyisoquinoline] tetrahydrochloride tetrahydrate]
Whole blood clot
  ED50: 0.03 mg/kg

## COc1cc2c(cc1OC)C(CCOCC(COCCC1NCCc3cc(OC)c(OC)cc31)OCCC1NCCc3cc(OC)c(OC)cc31)NCC2.Cl.Cl.Cl (centres unmarked) [Example 17.1, 1,1',1"-[1,2,3-PROPANETRIYLTRI-(OXYETHYLENE)]TRIS[1,2,3,4-TETRAHYDRO-6,7-DIMETHOXYISOQUINOLINE] TRIHYDROCHLORIDE]
Whole blood clot
  ED50: 0.8 mg/kg

## NCCc1c[nH]c2ccc(O)cc12 [serotonin]
Fibrinolytic activity
  fibrinolytic activity in vivo: Fibrinolytic activity in vivo can be induced

## COc1cc2c(cc1OC)C(CCN(CCC1NCCc3cc(OC)c(OC)cc31)CCC1NCCc3cc(OC)c(OC)cc31)NCC2 (centres unmarked) [Example 17.3, 1,1',1"-(nitrilotriethylene)tris[1,2,3,4-tetrahydro-6,7-dimethoxyisoquinoline]]
Whole blood clot
  ED50: 0.7 mg/kg

## O=C(O)c1cccnc1 [nicotinic acid]
Fibrinolytic activity
  fibrinolytic activity in vivo: Fibrinolytic activity in vivo can be induced

## COc1cc2c(cc1OC)C(CCC(CCC1=NCCc3cc(OC)c(OC)cc31)CCC(CC1=NCCc3cc(OC)c(OC)cc31)c1ccccc1)=NCC2.Cl.Cl.Cl.O.O.O (centres unmarked) [Example 7.1a, 1,1'-{5-[2-(3,4-dihydro-6,7-dimethoxy-1-isoquinolinyl)ethyl]-2-phenylheptamethylene}bis[3,4-dihydro-6,7-dimethoxyisoquinoline] trihydrochloride trihydrate]
[1]
  IC50: < 40 µg/mL

## Streptokinase: a streptococcal protein, has been used for thrombolysis
[3]
  side effects in thrombolysis: side effects of pyrogenicity and anaphylactic reactions

## COc1cc2c(cc1OC)C(CCOCC(COCCC1=NCCc3cc(OC)c(OC)cc31)OCCC1=NCCc3cc(OC)c(OC)cc31)=NCC2 [Example 17.1a, 1,1',1"-[1,2,3-propanetriyltri(oxyethylene)]tris[3,4-dihydro-6,7-dimethoxyisoquinoline]]
[1]
  IC50: < 40 µg/mL

## COc1cc2c(cc1OC)C(CCC(CCC(CCC1NCCc3cc(OC)c(OC)cc31)CCC1NCCc3cc(OC)c(OC)cc31)CCC1NCCc3cc(OC)c(OC)cc31)NCC2.Cl.Cl.Cl.Cl.O.O.O.O (centres unmarked) [Example 5.1, 1,1'-{3,6-bis[2-(1,2,3,4-tetrahydro-6,7-dimethoxy-1-isoquinolinyl)ethyl]-octamethylene}bis[1,2,3,4-tetrahydro-6,7-dimethoxyisoquinoline] tetrahydrochloride tetrahydrate]
Whole blood clot
  ED50: 0.06 mg/kg

## COc1ccc2c(c1)CCNC2CCCCC(CCC1NCCc2cc(OC)ccc21)CCC1NCCc2cc(OC)ccc21 (centres unmarked) [Example 10.1, 1,1'-{3-[2-(1,2,3,4-tetrahydro-6-methoxy-1-isoquinolinyl)ethyl]heptamethylene}bis[1,2,3,4-tetrahydro-6-methoxyisoquinoline]]
Whole blood clot
  ED50: 0.5 mg/kg

## COc1cc2c(cc1OC)C(CCCCC(CCCCC(CCCCC1NCCc3cc(OC)c(OC)cc31)C1NCCc3cc(OC)c(OC)cc31)C1NCCc3cc(OC)c(OC)cc31)NCC2 (centres unmarked) [Example 15.1, 1,1',1",1'"-(1,5,10,14-tetradecanetetrayl)tetrakis[1,2,3,4-tetrahydro-6,7-dimethoxyisoquinoline]]
Whole blood clot
  ED50: 0.04 mg/kg

## CCCCC1C(=O)N(c2ccccc2)N(c2ccccc2)C1=O [phenylbutazone]
Fibrinolytic activity
  fibrinolytic activity in vivo: Fibrinolytic activity in vivo can be induced

## COc1cc2c(cc1OC)C(CCCC(CCCC1NCCc3cc(OC)c(OC)cc31)C1NCCc3cc(OC)c(OC)cc31)NCC2.Cl.Cl.Cl.O.O.O (centres unmarked) [Example 19.1, 1,1',1"-(1,4,7-HEPTANETRIYL)TRIS[1,2,3,4-TETRAHYDRO-6,7-DIMETHOXYISOQUINOLINE] TRIHYDROCHLORIDE TRIHYDRATE]
Whole blood clot
  ED50: 0.03 mg/kg

## NCCc1c[nH]cn1 [histamine]
Fibrinolytic activity
  fibrinolytic activity in vivo: Fibrinolytic activity in vivo can be induced

## COc1cc2c(cc1OC)C(CCCCC(CCCCC(CCCCC1=NCCc3cc(OC)c(OC)cc31)C1=NCCc3cc(OC)c(OC)cc31)C1=NCCc3cc(OC)c(OC)cc31)=NCC2.Cl.Cl.Cl.Cl.O.O.O.O (centres unmarked) [Example 15.1a, 1,1',1",1'"-(1,5,10,14-tetradecanetetrayl)tetrakis[3,4-dihydro-6,7-dimethoxyisoquinoline] tetrahydrochloride tetrahydrate]
[1]
  IC50: 27 µg/mL

## COc1cc2c(cc1OC)C(CCC(CCC1=NCCc3cc(OC)c(OC)cc31)(CCC1=NCCc3cc(OC)c(OC)cc31)[N+](=O)[O-])=NCC2.Cl.Cl.Cl [Example 18.1a, 1,1'-{3-[2-(3,4-dihydro-6,7-dimethoxy-1-isoquinolinyl)ethyl] -3-nitropentamethylene}bis[3,4-dihydro-6,7-dimethoxyisoquinoline] trihydrochloride]
[1]
  IC50: 6 µg/mL

Reference: US4107165A, “Tris[tetrahydroisoquinoline] compounds” (Endo Laboratories, priority 1976, dated 1978)
